The values that follow come from US20090105349A1, “ANDROGEN MODULATORS” (WARNER-LAMBERT COMPANY LLC, priority 2004, published 2009).

In assay [1] the target is T1, hAR (human androgen receptor) (Homo sapiens, UniProt P10275).
T1 construct: made in house; host or cells: baculovirus/Sf9 insect cells (crude extract)
T1 sequence (P10275 1-920): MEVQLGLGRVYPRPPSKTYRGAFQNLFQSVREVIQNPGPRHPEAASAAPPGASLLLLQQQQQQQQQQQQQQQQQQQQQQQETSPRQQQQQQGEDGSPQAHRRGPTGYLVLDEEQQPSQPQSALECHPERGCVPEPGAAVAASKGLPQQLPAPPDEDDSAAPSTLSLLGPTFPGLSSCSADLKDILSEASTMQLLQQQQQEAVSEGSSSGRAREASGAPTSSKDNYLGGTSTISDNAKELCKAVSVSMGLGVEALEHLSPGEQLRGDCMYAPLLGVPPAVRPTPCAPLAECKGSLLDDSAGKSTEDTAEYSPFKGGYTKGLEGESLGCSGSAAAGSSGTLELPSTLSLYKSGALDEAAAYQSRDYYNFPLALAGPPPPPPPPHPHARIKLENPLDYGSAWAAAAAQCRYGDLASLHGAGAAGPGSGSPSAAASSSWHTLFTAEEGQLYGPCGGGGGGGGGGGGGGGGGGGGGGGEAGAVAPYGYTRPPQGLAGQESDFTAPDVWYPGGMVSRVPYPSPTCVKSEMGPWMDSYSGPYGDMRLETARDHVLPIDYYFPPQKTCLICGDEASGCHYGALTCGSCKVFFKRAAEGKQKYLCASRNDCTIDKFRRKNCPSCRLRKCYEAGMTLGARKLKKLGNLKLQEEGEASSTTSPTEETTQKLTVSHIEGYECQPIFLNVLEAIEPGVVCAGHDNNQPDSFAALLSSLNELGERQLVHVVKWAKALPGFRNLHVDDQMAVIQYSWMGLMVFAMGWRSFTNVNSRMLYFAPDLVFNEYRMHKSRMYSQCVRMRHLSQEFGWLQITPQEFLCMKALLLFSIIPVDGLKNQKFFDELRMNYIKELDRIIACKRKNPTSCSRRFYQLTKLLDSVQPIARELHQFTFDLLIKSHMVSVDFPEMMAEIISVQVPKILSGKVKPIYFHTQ
Put plainly: Competitive hAR binding assay with 3H-DHT tracer. Here is the method: The description below describes how the assay was carried out.
Competitive binding analysis was performed on baculovirus/Sf9 generated hAR extracts in the presence or absence of different concentrations of test agent and a fixed concentration of ^3H-dihydrotestosterone (3H-DHT) as tracer. […] Subsequently, the binding reactions are washed three times to completely remove excess unbound ^3H-DHT. hAR bound ^3H-DHT levels are determined in the presence of compounds (i.e. competitive binding) and compared to levels bound when no competitor is present (i.e. maximum binding). Compound binding affinity to the hAR is expressed as the concentration of compound at which one half of the maximum binding is inhibited.

The target in assay [2] is T2, androgen receptor in MDA-MB453-MMTV clone 54-19 cells (Homo sapiens, UniProt P10275).
T2 sequence (P10275 1-920 Q868H): T1 sequence (P10275 1-920) with Q868H
The assay is described as follows: AR antagonist cell assay (MMTV-luciferase reporter). Type of assay: cell-based. How it is done:
The compounds ability to antagonize the effects of androgen on the androgen receptor were determined in a whole cell assay as described immediately below.
This cell line is a stable transfected cell line with MDA-MB453 cell background (a human breast tumor cell line expressing androgen receptor). A MMTV minimal promoter containing ARE was first cloned in front of a firefly luciferase reporter gene. Then the cascade was cloned into transfection vector pUV120puro. […] Puromycin resistant stable cell line was selected.
Plating medium: DMEM (phenol red free), 10% charcoal treated HyClone serum, 1% L-glutamine
Assay medium: DMEM (phenol red free), 1% charcoal treated HyClone serum, 1% L-glutamine, and 1% penicillin/streptomycin
Assay procedure: • 1. Cells are maintained in culture medium, splitting cells when they reach 80-90% confluence • 2. To test compounds, 10,000 cells/well are plated to opaque 96 cell culture plate in 100 ul/well plating medium, culture for overnight at 37° C. in cell culture incubator • 3. […] Add 10 ul/well freshly prepared DHT (final concentration at […]) to each well, incubate at 37° C. for 17 hr (overnight) • 5.
The results are reported as the mean of multiple tests as described below (the numbers of tests are indicated in the footnote). N.D. denotes that the compound was not tested.
In general terms: In a reporter assay the amount or activity of a reporter protein is the signal.

The mark [3] stands for this setting: MDA-MB453-MMTV clone 54-19, inhibition of DHT induced luciferase, 17 hr; mean of multiple tests; read-out: AR Cell IC50.
[4] abbreviates: baculovirus/Sf9 hAR extract, 1 nM 3H-DHT, one hour at 4° C, mean of multiple tests, read-out: AR Binding IC50.
Where [5] appears, read: read-out: AR Cell IC50; MDA-MB453-MMTV clone 54-19, inhibition of DHT induced luciferase, 17 hr; mean of multiple tests.

Molecules are shown by their SMILES. Where a chain is given by its changes, count along the chain named. Read-outs that look alike come from different tables or passages of the source. Bounds are passed on as bounds.

As for `COc1ccccc1Oc1ccc(C#N)cc1Cl` [Example 10, 3-Chloro-4-(2-methoxy-phenoxy)-benzonitrile], the figures for the half-maximal inhibitory concentration (IC50) in assay [1] and in assay [2] (setting [3]) were 29 nM and 319 nM, respectively.

On to `Cc1cc(C)c(Oc2ccc(C#N)cc2Cl)c(C)c1` [Example 15, 3-Chloro-(2,4,6-trimethyl-phenoxy)-benzonitrile], for which the IC50 is 16 nM in assay [1] and greater than 1000 nM in assay [2] (setting [3]).

Consider `Cc1cccc(C)c1Oc1ccc(C#N)cc1Cl` [Example 16, 3-Chloro-4-(2,,6-dimethyl-phenoxy)-benzonitrile], for which the IC50 amounted to 16 nM in assay [1] and 161 nM in assay [2] (setting [3]).

As to `CCCc1ccccc1Oc1ccc(C#N)cc1Cl` [Example 17, 3-Chloro-4-(2-propyl-phenoxy)-benzonitrile], the values for the IC50 in assay [1] (setting [4]) and in assay [2] (setting [3]) were 102 nM and 861 nM, respectively.

Turning to `COc1cccc(F)c1Oc1ccc(C#N)cc1Cl` [Example 19, 3-Chloro-4-(2-fluoro-6-methoxy-phenoxy)-benzonitrile], the values for the half-inhibitory concentration (IC50) in assay [1] and in assay [2] (setting [5]) were 28 nM and 52 nM, respectively.

For the compound `N#Cc1ccc(Oc2ccccc2C(F)(F)F)c(Cl)c1` [Example 20, 3-Chloro-4-(2-trifluoromethyl-phenoxy)-benzonitrile], the IC50 in assay [1] (setting [4]) came out at 253 nM; in assay [2] (setting [5]) it was 51 nM.

With `CCc1ccccc1Oc1ccc(C#N)cc1Cl` [Example 23, 3-Chloro-(2-ethyl-phenoxy)-benzonitrile], the IC50 was 227 nM in assay [1] (setting [4]) and greater than 1000 nM in assay [2] (setting [3]).

Consider `N#Cc1ccc(Oc2ccc(F)cc2F)c(Cl)c1` [Example 25, 3-Chloro-4-(2,4-difluoro-phenoxy)-benzonitrile], for which the IC50 was 371 nM in assay [1] (setting [4]) and 792 nM in assay [2] (setting [3]).

In the case of `COc1cccc(OC)c1Oc1ccc(C#N)cc1Cl` [Example 26, 3-Chloro-4-(2,6-dimethoxy-phenoxy)-benzonitrile], the IC50 in assay [1] (setting [4]) was found to be 106 nM; in assay [2] (setting [5]) it was 54 nM.

In the case of `CCOc1cc(C)ccc1Oc1ccc(C#N)cc1Cl` [Example 30, 3-Chloro-4-(2-ethoxy-4-methyl-phenoxy)-benzonitrile], the half-inhibitory concentration (IC50) in assay [1] (setting [4]) was 42 nM; in assay [2] (setting [3]), 869 nM.

With `N#Cc1ccc(Oc2cccc3c2CCCC3)cc1Cl` [Example 32, 2-Chloro-4-(5,6,7,8-tetrahydro-naphthalen-1-yloxy)-benzonitrile], the IC50 worked out at 94 nM in assay [1] and 473 nM in assay [2] (setting [3]).

With `COc1ccc(C)cc1Oc1ccc(C#N)c(Cl)c1` [Example 33, 2-Chloro-4-(2-methoxy-5-methyl-phenoxy)-benzonitrile], the IC50 in assay [1] (setting [4]) was 232 nM; in assay [2] (setting [5]), 42 nM.

As to `CCc1cccc(Oc2ccc(C#N)c(Cl)c2)c1` [Example 34, 2-Chloro-4-(3-ethyl-phenoxy)-benzonitrile], the figures for the IC50 in assay [1] (setting [4]) and in assay [2] (setting [3]) were 181 nM and 924 nM, respectively.

Turning to `CCc1ccccc1Oc1ccc(C#N)c(Cl)c1` [Example 35, 2-Chloro-4-(2-ethyl-phenoxy)-benzonitrile], the IC50 in assay [1] was 20 nM; in assay [2] (setting [3]), 360 nM.

Turning to `N#Cc1ccc(Oc2ccc(F)cc2F)cc1Cl` [Example 36, 2-Chloro-4-(2,4-difluoro-phenoxy)-benzonitrile], the IC50 was 52 nM in assay [1] and 144 nM in assay [2] (setting [3]).

For the compound `COc1cccc(Oc2ccc(C#N)c(Cl)c2)c1` [Example 37, 2-Chloro-4-(3-methoxy-phenoxy)-benzonitrile], the IC50 was found to be 114 nM in assay [1] (setting [4]) and 139 nM in assay [2] (setting [3]).

For `COc1cccc(OC)c1Oc1ccc(C#N)c(Cl)c1` [Example 38, 2-Chloro-4-(2,6-dimethoxy-phenoxy)-benzonitrile], the IC50 amounted to 249 nM in assay [1] (setting [4]) and 19 nM in assay [2] (setting [5]).

With `CC(C)c1ccccc1Oc1ccc(C#N)c(Cl)c1` [Example 39, 2-Chloro-4-(2-isopropyl-phenoxy)-benzonitrile], the IC50 in assay [1] was 43 nM; in assay [2] (setting [3]), 254 nM.

Consider `N#Cc1ccc(Oc2cccc3ccccc23)cc1Cl` [Example 40, 2-Chloro-4-(naphthalen-1-yloxy)-benzonitrile], for which the concentration for half-maximal inhibition (IC50) came to 31 nM in assay [1] and 90 nM in assay [2] (setting [5]).

One may read the IC50 as the point on the concentration scale where inhibition reaches its midpoint.
